Laboratory results: patent US9695155B2, “Herbicidal substituted pyrimidinyloxy benzene compounds” (E. I. DU PONT DE NEMOURS AND COMPANY, priority 2013, dated 2017)

What was measured:
kochia [1] = experiment: Test A postemergence; assay type: in vivo, Kochia scoparia; settings: for Plant response rating, Kochia: 31 g ai/ha, 0 to 100 scale, 0 no effect, 100 complete control; for Kochia plant response rating: 125 g ai/ha, 0 to 100 scale where 0 is no effect and 100 is complete control
Procedure, shortened: (§1)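 Scoring: eye-based comparison with untreated controls, 0 for no effect through 100 for complete control, at about day 10. Treatments: directed soil spray preemergence; foliar spray postemergence on 2–10 cm plants at the one- to two-leaf stage. Medium: loam soil with sand.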

sedge, umbrella = experiment: Test B flooded paddy test; assay type: in vivo, Cyperus difformis; settings: Flood, 250 g ai/ha; 0 to 100 scale where 0 is no effect and 100 is complete control
Procedure, shortened: (§2)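 2-leaf stage plants; pots flooded to 3 cm, compound added to paddy water, depth maintained. Greenhouse 13–15 d. Visual rating vs untreated controls, 0 (no effect) to 100 (complete control); dash = no result.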

barnyardgrass [2] = experiment: Test A postemergence; assay type: in vivo, Echinochloa crus-galli; settings: for Plant response rating, Barnyardgrass: 31 g ai/ha, 0 to 100 scale, 0 no effect, 100 complete control; for Barnyardgrass plant response rating: 125 g ai/ha, 0 to 100 scale where 0 is no effect and 100 is complete control
Procedure, shortened: as §1

blackgrass = experiment: Test A postemergence; assay type: in vivo, Alopecurus myosuroides; settings: for Plant response rating, Blackgrass: 31 g ai/ha, 0 to 100 scale, 0 no effect, 100 complete control; for Blackgrass plant response rating: 125 g ai/ha, 0 to 100 scale where 0 is no effect and 100 is complete control
Procedure, shortened: as §1

ragweed [3] = experiment: Test A postemergence; assay type: in vivo, Ambrosia elatior; settings: for Plant response rating, Ragweed: 31 g ai/ha, 0 to 100 scale, 0 no effect, 100 complete control; for Ragweed plant response rating: 125 g ai/ha, 0 to 100 scale where 0 is no effect and 100 is complete control
Procedure, shortened: as §1

pigweed [4] = experiment: Test A postemergence; assay type: in vivo, Amaranthus retroflexus; settings: for Plant response rating, Pigweed: 31 g ai/ha, 0 to 100 scale, 0 no effect, 100 complete control; for Pigweed plant response rating: 125 g ai/ha, 0 to 100 scale where 0 is no effect and 100 is complete control
Procedure, shortened: as §1

Heteranthera limosa = experiment: Test B flooded paddy test; assay type: in vivo; settings: Flood, 250 g ai/ha; 0 to 100 scale where 0 is no effect and 100 is complete control
Procedure, shortened: as §2

rice = experiment: Test B flooded paddy test; assay type: in vivo, Oryza sativa; settings: Flood, 250 g ai/ha; 0 to 100 scale where 0 is no effect and 100 is complete control
Procedure, shortened: as §2

corn = experiment: Test A postemergence; assay type: in vivo, Zea mays; settings: for Plant response rating, Corn: 31 g ai/ha, 0 to 100 scale, 0 no effect, 100 complete control; for Corn plant response rating: 125 g ai/ha, 0 to 100 scale where 0 is no effect and 100 is complete control
Procedure, shortened: as §1

galium = experiment: Test A postemergence; assay type: in vivo, Galium aparine; settings: for Plant response rating, Galium: 31 g ai/ha, 0 to 100 scale, 0 no effect, 100 complete control; for Galium plant response rating: 125 g ai/ha, 0 to 100 scale where 0 is no effect and 100 is complete control
Procedure, shortened: as §1

kochia [5] = experiment: Test A preemergence; assay type: in vivo, Kochia scoparia; settings: for Plant response rating, Kochia: 0 to 100 scale where 0 is no effect and 100 is complete control
Procedure, shortened: as §1

giant foxtail [6] = experiment: Test A preemergence; assay type: in vivo, Setaria faberii; settings: 0 to 100 scale where 0 is no effect and 100 is complete control
Procedure, shortened: as §1

barnyardgrass [7] = experiment: Test A preemergence; assay type: in vivo, Echinochloa crus-galli; settings: 0 to 100 scale where 0 is no effect and 100 is complete control
Procedure, shortened: as §1

ragweed [8] = experiment: Test A preemergence; assay type: in vivo, Ambrosia elatior; settings: for Plant response rating, Ragweed: 0 to 100 scale where 0 is no effect and 100 is complete control
Procedure, shortened: as §1

pigweed [9] = experiment: Test A preemergence; assay type: in vivo, Amaranthus retroflexus; settings: for Plant response rating, Pigweed: 0 to 100 scale where 0 is no effect and 100 is complete control
Procedure, shortened: as §1

Italian ryegrass [10] = experiment: Test A postemergence; assay type: in vivo, Lolium multiflorum; settings: for Plant response rating, Ryegrass, Italian: 31 g ai/ha, 0 to 100 scale, 0 no effect, 100 complete control; for Ryegrass, Italian plant response rating: 125 g ai/ha, 0 to 100 scale where 0 is no effect and 100 is complete control
Procedure, shortened: as §1

barnyardgrass [11] = experiment: Test B flooded paddy test; assay type: in vivo, Echinochloa crus-galli; settings: Flood, 250 g ai/ha; 0 to 100 scale where 0 is no effect and 100 is complete control
Procedure, shortened: as §2

Italian ryegrass [12] = experiment: Test A preemergence; assay type: in vivo, Lolium multiflorum; settings: for Plant response rating, Ryegrass, Italian: 0 to 100 scale where 0 is no effect and 100 is complete control
Procedure, shortened: as §1

wheat = experiment: Test A postemergence; assay type: in vivo, Triticum aestivum; settings: for Plant response rating, Wheat: 31 g ai/ha, 0 to 100 scale, 0 no effect, 100 complete control; for Wheat plant response rating: 125 g ai/ha, 0 to 100 scale where 0 is no effect and 100 is complete control
Procedure, shortened: as §1

giant foxtail [13] = experiment: Test A postemergence; assay type: in vivo, Setaria faberii; settings: for Plant response rating, Foxtail, Giant: 31 g ai/ha, 0 to 100 scale, 0 no effect, 100 complete control; for Foxtail, Giant plant response rating: 125 g ai/ha, 0 to 100 scale where 0 is no effect and 100 is complete control
Procedure, shortened: as §1

[14] = 31 g ai/ha, visual, approximately 10 days

Structure (SMILES) | Plant response rating, Kochia (kochia [1]) | Kochia plant response rating (kochia [1]) | Plant response rating, Sedge, Umbrella (sedge, umbrella) | Plant response rating, Barnyardgrass (barnyardgrass [2]) | Barnyardgrass plant response rating (barnyardgrass [2]) | Plant response rating, Blackgrass (blackgrass) | Blackgrass plant response rating (blackgrass) | Plant response rating, Ragweed (ragweed [3]) | Ragweed plant response rating (ragweed [3]) | Plant response rating, Pigweed (pigweed [4]) | Pigweed plant response rating (pigweed [4]) | Plant response rating, Ducksalad (Heteranthera limosa) | Plant response rating, Rice (rice) | Plant response rating, Corn (corn) | Corn plant response rating (corn) | Plant response rating, Galium (galium) | Galium plant response rating (galium) | Plant response rating, Kochia (kochia [5]; [14]) | Plant response rating, Foxtail, Giant (giant foxtail [6]; [14]) | Plant response rating, Foxtail, Giant (giant foxtail [6]; 125 g ai/ha) | other results
CCCOc1cnn(-c2c(F)cccc2Oc2ncc(F)cn2)c1 [Compound 153] | 0 | 0 | 0 | 0 | 0 | 0 | 0 | 0 | 0 | 0 | 0 | 30 | 0 | 0 | 0 | 0 | 0 | 0 | 0 | 0 | Plant response rating, Kochia (kochia [5]; 125 g ai/ha): 0; Plant response rating, Barnyardgrass (barnyardgrass [7]; [14]): 0; Plant response rating, Barnyardgrass (barnyardgrass [7]; 125 g ai/ha): 0; Plant response rating, Ragweed (ragweed [8]; [14]): 0; Plant response rating, Ragweed (ragweed [8]; 125 g ai/ha): 0; Plant response rating, Pigweed (pigweed [9]; [14]): 0; Plant response rating, Pigweed (pigweed [9]; 125 g ai/ha): 0; Plant response rating, Ryegrass, Italian (Italian ryegrass [10]): 0; Ryegrass, Italian plant response rating (Italian ryegrass [10]): 0; Plant response rating, Barnyardgrass (barnyardgrass [11]): 0; Plant response rating, Ryegrass, Italian (Italian ryegrass [12]; [14]): 0; Plant response rating, Ryegrass, Italian (Italian ryegrass [12]; 125 g ai/ha): 0; Plant response rating, Wheat (wheat): 0; Wheat plant response rating (wheat): 0; Plant response rating, Foxtail, Giant (giant foxtail [13]): 0; Foxtail, Giant plant response rating (giant foxtail [13]): 0
Fc1cnc(Oc2cccc(Br)c2-n2cc(OCC(F)(F)F)cn2)nc1 [Compound 157] | 60 | 100 | 75 | 10 | 80 | 30 | 50 | 20 | 50 | 90 | 100 | 80 | 35 | 0 | 40 | 60 | 90 | 60 | 70 | 100 | Plant response rating, Kochia (kochia [5]; 125 g ai/ha): 90; Plant response rating, Barnyardgrass (barnyardgrass [7]; [14]): 20; Plant response rating, Barnyardgrass (barnyardgrass [7]; 125 g ai/ha): 80; Plant response rating, Ragweed (ragweed [8]; 125 g ai/ha): 30; Plant response rating, Pigweed (pigweed [9]; [14]): 90; Plant response rating, Pigweed (pigweed [9]; 125 g ai/ha): 90; Plant response rating, Ryegrass, Italian (Italian ryegrass [10]): 0; Ryegrass, Italian plant response rating (Italian ryegrass [10]): 20; Plant response rating, Barnyardgrass (barnyardgrass [11]): 35; Plant response rating, Ryegrass, Italian (Italian ryegrass [12]; [14]): 0; Plant response rating, Ryegrass, Italian (Italian ryegrass [12]; 125 g ai/ha): 0; Plant response rating, Wheat (wheat): 0; Wheat plant response rating (wheat): 0; Plant response rating, Foxtail, Giant (giant foxtail [13]): 10; Foxtail, Giant plant response rating (giant foxtail [13]): 80
COc1cccc(Oc2ncc(Cl)cn2)c1-n1cc(Cl)cn1 [Compound 169] | 0 | 10 | 75 | 0 | 20 | 0 | 30 | 10 | 60 | 10 | 20 | 65 | 15 | 0 | 0 | 10 | 40 | 0 | 30 | 80 | Kochia plant response rating (0 to 100 scale) (kochia [5]; 125 g ai/ha): 0; Plant response rating, Barnyardgrass (barnyardgrass [7]; [14]): 10; Plant response rating, Barnyardgrass (barnyardgrass [7]; 125 g ai/ha): 50; Plant response rating, Ragweed (ragweed [8]; [14]): 0; Ragweed plant response rating (0 to 100 scale) (ragweed [8]; 125 g ai/ha): 0; Plant response rating, Pigweed (pigweed [9]; [14]): 0; Pigweed plant response rating (0 to 100 scale) (pigweed [9]; 125 g ai/ha): 80; Plant response rating, Ryegrass, Italian (Italian ryegrass [10]): 0; Ryegrass, Italian plant response rating (Italian ryegrass [10]): 0; Plant response rating, Barnyardgrass (barnyardgrass [11]): 25; Plant response rating, Ryegrass, Italian (Italian ryegrass [12]; [14]): 0; Ryegrass, Italian plant response rating (0 to 100 scale) (Italian ryegrass [12]; 125 g ai/ha): 0; Plant response rating, Wheat (wheat): 0; Wheat plant response rating (wheat): 0; Plant response rating, Foxtail, Giant (giant foxtail [13]): 0; Foxtail, Giant plant response rating (giant foxtail [13]): 40
